Here are results for two compounds from US6075057A, “Inhibition of carbohydrates metabolism by quinone compounds” (priority 1997, dated 2000).

For orientation: IC50 means the concentration that inhibits the measured activity by half. Low values mean greater potency, high ones weaker potency.

Bounds are passed on as bounds.

For assay [1], the system named is β-glucosidase (EC 3.2.1.21). Put plainly: Initial screening assay for enzyme inhibition, β-glucosidase. It is filed as biochemical, almonds. Particulars: 20 μM inhibitor, 2% MeOH. The procedure: (§1) Optically pure enantiomers of avarol were synthetically prepared. A survey of potential inhibitory activity by avarol against twelve glycosidases was performed according to general procedures^15 (see experimental section). The enzymes tested and their biological sources are listed in Table 1 along with any pertinent references found for a given enzyme. In order to determine a working range for enzyme and substrate concentrations in which the rate of product formation was linear and steady-state kinetics were applicable, initial rate studies with varying substrate concentrations were performed in the absence of inhibitor. The Michaelis constants (Km 's) and Vmax values for these enzymes were determined from these plots using standard graphical analysis procedures as described in ref. 17 and are summarized in Table 2.
(§2) Enzymatic Assays. […] Reactions were monitored at 400 nm (the absorbance of the p-nitrophenol product, ε=3204.5 M^-1 cm^-1) for a given amount of time and the initial rates were calculated and expressed as μmols p-nitrophenol formed per unit enzyme per second. Absportion readings for control reactions were corrected for the small baseline absorbance at time zero. Small discrepancies between time zero absorbance readings in a given inhibition assay and a time zero reading in a control assay were used to correct the overall absorbance change calculated in the inhibition assay. […]

For assay [2], the system named is β-N-acetylglucosaminidase (EC 3.2.1.30). Put plainly: Initial screening assay for enzyme inhibition, β-N-acetylglucosaminidase. Particulars: 2% MeOH. The assay is classed as biochemical, bovine kidney. The method, then: as §1
(§3) Enzymatic Assays. Piperazine-N,N'-bix-(2-ethanesulfonic acid)(PIPES) buffer, enzymes, and substrates were purchased from Sigma and used as received. Buffer solutions and enzymes (desiccated) were stored at 4° C. p-Nitrophenyl glycoside substrates were stored desiccated at -20° C. Enzyme inhibition assays and initial rate studies were carried out with the appropriate p-nitrophenyl glycoside substrates following the general procedure of Kajimoto et al., J. Am. Chem. Soc. 113:6187 (1991) with the exception that amyloglucosidase (EC 3.2,1.3, Asp. niger) was assayed following the method of Saul et al., Arch. Biochem. Biophys. 221:593 (1983). Assays were performed in a Perkin-Elmer Lambda Array 3840 Spectrophotometer using the built-in drive method (resolution=0.25, average=8) in a quartz cuvette (1 cm pathlength). Background absorption spectra were acquired using millipore filtered water as medium. Steady-state kinetics were maintained by adjusting the amount of enzyme used in each assay so that less than 10% of the substrate was converted to product for the duration of the reaction. Reactions were monitored at 400 nm (the absorbance of the p-nitrophenol product, ε=3204.5 M^-1 cm^-1) for a given amount of time and the initial rates were calculated and expressed as μmols p-nitrophenol formed per unit enzyme per second. Absportion readings for control reactions were corrected for the small baseline absorbance at time zero. Small discrepancies between time zero absorbance readings in a given inhibition assay and a time zero reading in a control assay were used to correct the overall absorbance change calculated in the inhibition assay. […]
(§4) Typical assay: A 1.5-mL quartz cuvette was charged with 940 μL of PIPES-NaOAc buffer solution (pH 6.56), 20 μL of inhibitor solution, and 20 μL of enzyme solution. […] The reaction was monitored at 400 nm for 1 min and the absorbance change was used to calculate the initial hydrolysis rate. […]

Assay [3] addresses T1, β-galactosidase (EC 3.2.1.23) (Aspergillus niger, UniProt P29853).
T1 construct: purchased Sigma; host or cells: Aspergillus niger
Briefly: Initial screening assay for enzyme inhibition, β-galactosidase (Asp. niger). It is filed as biochemical. Particulars: 2% MeOH, read-out: % Enzyme activity relative to control. The method, then:
as §1, §3, §4

For assay [4], the target named is T2, α-L-fucosidase (EC 3.2.1.51) (Bos taurus, UniProt Q2KIM0).
T2 construct: purchased Sigma; host or cells: bovine kidney
T2 sequence (Q2KIM0 23-468): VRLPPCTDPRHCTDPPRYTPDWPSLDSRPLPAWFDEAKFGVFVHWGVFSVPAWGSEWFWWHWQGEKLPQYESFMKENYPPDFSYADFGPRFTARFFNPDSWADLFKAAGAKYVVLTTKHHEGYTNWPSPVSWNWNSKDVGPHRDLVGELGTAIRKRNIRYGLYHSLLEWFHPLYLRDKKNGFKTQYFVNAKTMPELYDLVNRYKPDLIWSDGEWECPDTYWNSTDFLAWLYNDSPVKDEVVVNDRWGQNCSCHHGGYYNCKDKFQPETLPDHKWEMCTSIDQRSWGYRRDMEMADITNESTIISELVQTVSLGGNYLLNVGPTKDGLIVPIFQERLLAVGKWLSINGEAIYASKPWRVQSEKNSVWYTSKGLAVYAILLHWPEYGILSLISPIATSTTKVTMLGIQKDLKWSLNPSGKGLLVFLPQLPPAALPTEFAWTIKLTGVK
Put plainly: Initial screening assay for enzyme inhibition, α-L-fucosidase. It is filed as biochemical, bovine kidney. Particulars: α-L-fucosidase, 2% MeOH, read-out: % Enzyme activity relative to control. The procedure:
as §1, §3, §4

The test system of assay [5] is α-galactosidase (EC 3.2.1.22). Put plainly: Initial screening assay for enzyme inhibition, α-galactosidase (E. coli). It is filed as biochemical, Escherichia coli. Particulars: 2% MeOH. The procedure: as §1, §3, §4
Assay [6] deals with amyloglucosidase (EC 3.2.1.3). Briefly: Initial screening assay for enzyme inhibition, amyloglucosidase. It is filed as biochemical, Aspergillus niger. Particulars: amyloglucosidase, 2% MeOH. The method, then:
as §1
Enzymatic Assays. Piperazine-N,N'-bix-(2-ethanesulfonic acid)(PIPES) buffer, enzymes, and substrates were purchased from Sigma and used as received. Buffer solutions and enzymes (desiccated) were stored at 4° C. p-Nitrophenyl glycoside substrates were stored desiccated at -20° C. Enzyme inhibition assays and initial rate studies were carried out with the appropriate p-nitrophenyl glycoside substrates following the general procedure of Kajimoto et al., J. Am. Chem. Soc. 113:6187 (1991) with the exception that amyloglucosidase (EC 3.2,1.3, Asp. niger) was assayed following the method of Saul et al., Arch. Biochem. Biophys. 221:593 (1983). Assays were performed in a Perkin-Elmer Lambda Array 3840 Spectrophotometer using the built-in drive method (resolution=0.25, average=8) in a quartz cuvette (1 cm pathlength). Background absorption spectra were acquired using millipore filtered water as medium. Steady-state kinetics were maintained by adjusting the amount of enzyme used in each assay so that less than 10% of the substrate was converted to product for the duration of the reaction. Reactions were monitored at 400 nm (the absorbance of the p-nitrophenol product, ε=3204.5 M^-1 cm^-1) for a given amount of time and the initial rates were calculated and expressed as μmols p-nitrophenol formed per unit enzyme per second. Absportion readings for control reactions were corrected for the small baseline absorbance at time zero. Small discrepancies between time zero absorbance readings in a given inhibition assay and a time zero reading in a control assay were used to correct the overall absorbance change calculated in the inhibition assay. Inhibitors were dissolved in uv-grade absolute methanol.
Typical assay: A 1.5-mL quartz cuvette was charged with 940 μL of PIPES-NaOAc buffer solution (pH 6.56), 20 μL of inhibitor solution, and 20 μL of enzyme solution. The result was mixed well and then equilibrated at 37° C. for two minutes. 20 μL of the appropriate p-nitrophenyl glycoside solution was then added to initiate the reaction with rapid mixing. The reaction was monitored at 400 nm for 1 min and the absorbance change was used to calculate the initial hydrolysis rate. Lineweaver-Burk plots were constructed by repeating this procedure with varying substrate and inhibitor concentrations.

Assay [7] has as its target T3, β-xylosidase (EC 3.2.1.37) (Aspergillus niger, UniProt O00089).
T3 construct: purchased Sigma; host or cells: Aspergillus niger
Put plainly: Initial screening assay for enzyme inhibition, β-xylosidase. Particulars: 2% MeOH, read-out: % Enzyme activity relative to control. The assay is classed as biochemical. The procedure:
as §1, §3, §4

Assay [8] addresses T4, α-D-glucosidase (brewer's yeast) (Saccharomyces cerevisiae, UniProt P53341).
T4 construct: purchased Sigma; host or cells: brewer's yeast
Briefly: IC50 determination against α-D-glucosidase. The assay is classed as biochemical. The procedure:
as §3, with “Background absorption spectra were acquired using millipore filtered water as medium. Steady-state kinetics were maintained by adjusting the amount of enzyme used in each assay so that less than 10% of the substrate was converted to product for the duration of the reaction.” left out

The target of assay [9] is T5, α-D-mannosidase (jack bean) (Canavalia ensiformis, UniProt C0HJB3).
T5 construct: purchased Sigma; host or cells: jack beans
Put plainly: IC50 determination against α-D-mannosidase. The assay is classed as biochemical. Particulars: hot substrate solutions. The method, then: Enzymatic assays with a α-D-mannosidase (jack bean) were complicated by the higher Km of the enzyme (2.04 mM) requiring higher substrate concentrations and the relative insolubility of the .rho.-nitrophenyl mannoside substrate in aqueous media. The assay had to be performed using hot solutions of the substrate which were pipetted with some expected difficulty. Nonetheless, IC50 values of >40 μM and ~10 μM were obtained for the (+)- and (-)-enantiomers of avarol respectively.
as §2, with “Assays. Piperazine-N,N'-bix-(2-ethanesulfonic acid)(PIPES) buffer, enzymes, and substrates were purchased from Sigma and used as received. Buffer solutions and enzymes (desiccated) were stored at 4° C. p-Nitrophenyl glycoside substrates were stored desiccated at -20° C.” for “Assays.”

T1 sequence (P29853 20-1006): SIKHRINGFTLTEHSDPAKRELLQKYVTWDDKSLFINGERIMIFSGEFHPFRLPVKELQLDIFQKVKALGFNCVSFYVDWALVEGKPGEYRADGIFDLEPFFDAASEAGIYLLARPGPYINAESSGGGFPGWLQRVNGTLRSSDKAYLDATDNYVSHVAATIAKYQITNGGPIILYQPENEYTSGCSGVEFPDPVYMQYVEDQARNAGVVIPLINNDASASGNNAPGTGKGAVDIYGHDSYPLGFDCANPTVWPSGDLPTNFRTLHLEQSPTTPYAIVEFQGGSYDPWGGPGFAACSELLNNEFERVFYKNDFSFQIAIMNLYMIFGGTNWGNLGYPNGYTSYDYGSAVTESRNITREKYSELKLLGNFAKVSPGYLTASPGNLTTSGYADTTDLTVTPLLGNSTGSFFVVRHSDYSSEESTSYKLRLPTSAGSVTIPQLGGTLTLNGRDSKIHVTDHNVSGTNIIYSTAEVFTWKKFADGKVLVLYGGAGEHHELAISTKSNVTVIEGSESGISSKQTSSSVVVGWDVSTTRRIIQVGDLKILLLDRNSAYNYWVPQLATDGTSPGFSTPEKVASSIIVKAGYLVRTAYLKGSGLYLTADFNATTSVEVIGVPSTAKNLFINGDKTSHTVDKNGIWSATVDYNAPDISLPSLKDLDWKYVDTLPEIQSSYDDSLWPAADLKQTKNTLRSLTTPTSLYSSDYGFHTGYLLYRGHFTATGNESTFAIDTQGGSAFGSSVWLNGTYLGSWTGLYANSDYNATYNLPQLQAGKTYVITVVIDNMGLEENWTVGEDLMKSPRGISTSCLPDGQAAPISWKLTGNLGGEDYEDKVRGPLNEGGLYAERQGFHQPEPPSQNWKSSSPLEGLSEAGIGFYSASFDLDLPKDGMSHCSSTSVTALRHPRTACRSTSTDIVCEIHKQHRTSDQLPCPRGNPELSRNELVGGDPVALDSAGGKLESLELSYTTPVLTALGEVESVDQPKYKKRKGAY
T4 sequence (P53341 whole entry): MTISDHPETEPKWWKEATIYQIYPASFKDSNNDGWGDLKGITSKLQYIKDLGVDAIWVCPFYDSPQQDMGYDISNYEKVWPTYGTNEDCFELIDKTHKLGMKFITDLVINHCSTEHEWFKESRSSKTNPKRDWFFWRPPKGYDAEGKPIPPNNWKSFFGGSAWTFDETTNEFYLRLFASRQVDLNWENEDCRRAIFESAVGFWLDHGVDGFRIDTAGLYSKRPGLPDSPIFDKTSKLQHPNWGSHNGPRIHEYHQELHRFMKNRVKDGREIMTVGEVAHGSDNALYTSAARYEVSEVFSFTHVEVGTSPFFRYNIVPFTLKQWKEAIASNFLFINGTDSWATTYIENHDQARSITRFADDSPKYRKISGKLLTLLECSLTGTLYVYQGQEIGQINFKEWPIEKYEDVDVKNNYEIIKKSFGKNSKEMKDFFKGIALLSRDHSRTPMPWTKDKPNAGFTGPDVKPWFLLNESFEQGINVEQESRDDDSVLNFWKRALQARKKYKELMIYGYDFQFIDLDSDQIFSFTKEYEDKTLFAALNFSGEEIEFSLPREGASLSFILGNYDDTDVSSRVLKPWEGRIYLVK
T3 sequence (O00089 27-804): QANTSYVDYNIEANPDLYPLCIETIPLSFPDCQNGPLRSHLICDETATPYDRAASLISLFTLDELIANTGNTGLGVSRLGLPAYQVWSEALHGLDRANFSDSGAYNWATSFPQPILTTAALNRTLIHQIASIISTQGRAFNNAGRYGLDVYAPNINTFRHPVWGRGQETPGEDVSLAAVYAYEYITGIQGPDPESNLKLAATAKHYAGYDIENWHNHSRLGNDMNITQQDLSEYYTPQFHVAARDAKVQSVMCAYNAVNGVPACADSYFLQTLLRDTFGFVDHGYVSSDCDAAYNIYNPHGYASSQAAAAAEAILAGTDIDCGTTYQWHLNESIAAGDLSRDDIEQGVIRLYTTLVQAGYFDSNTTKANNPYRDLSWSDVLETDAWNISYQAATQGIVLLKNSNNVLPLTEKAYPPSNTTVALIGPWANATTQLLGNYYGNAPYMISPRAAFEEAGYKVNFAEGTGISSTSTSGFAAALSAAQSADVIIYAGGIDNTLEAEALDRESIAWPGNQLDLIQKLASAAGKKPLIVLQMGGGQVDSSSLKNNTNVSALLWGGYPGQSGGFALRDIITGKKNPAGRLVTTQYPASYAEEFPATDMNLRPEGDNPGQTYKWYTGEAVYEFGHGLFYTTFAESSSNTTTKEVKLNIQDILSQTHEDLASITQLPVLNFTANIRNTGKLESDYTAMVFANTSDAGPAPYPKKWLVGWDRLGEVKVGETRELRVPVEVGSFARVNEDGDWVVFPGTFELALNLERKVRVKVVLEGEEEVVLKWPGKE
T5 sequence (C0HJB3 1-562 limits assumed): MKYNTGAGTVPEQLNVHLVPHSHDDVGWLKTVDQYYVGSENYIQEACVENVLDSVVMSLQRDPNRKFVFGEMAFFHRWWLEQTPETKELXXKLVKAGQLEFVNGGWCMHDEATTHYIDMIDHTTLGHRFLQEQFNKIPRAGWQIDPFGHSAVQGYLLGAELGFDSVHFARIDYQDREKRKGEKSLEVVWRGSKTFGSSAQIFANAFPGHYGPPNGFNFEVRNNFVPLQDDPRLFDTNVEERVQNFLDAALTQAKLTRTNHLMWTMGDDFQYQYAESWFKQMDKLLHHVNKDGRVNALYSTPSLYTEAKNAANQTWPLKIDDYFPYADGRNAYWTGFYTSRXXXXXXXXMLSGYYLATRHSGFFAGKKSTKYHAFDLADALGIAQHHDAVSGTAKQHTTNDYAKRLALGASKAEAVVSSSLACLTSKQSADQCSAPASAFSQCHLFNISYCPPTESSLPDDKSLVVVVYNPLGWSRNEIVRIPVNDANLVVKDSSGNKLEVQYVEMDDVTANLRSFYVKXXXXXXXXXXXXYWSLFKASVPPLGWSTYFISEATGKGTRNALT
T5 sequence (C0HJB3 563-981 limits assumed): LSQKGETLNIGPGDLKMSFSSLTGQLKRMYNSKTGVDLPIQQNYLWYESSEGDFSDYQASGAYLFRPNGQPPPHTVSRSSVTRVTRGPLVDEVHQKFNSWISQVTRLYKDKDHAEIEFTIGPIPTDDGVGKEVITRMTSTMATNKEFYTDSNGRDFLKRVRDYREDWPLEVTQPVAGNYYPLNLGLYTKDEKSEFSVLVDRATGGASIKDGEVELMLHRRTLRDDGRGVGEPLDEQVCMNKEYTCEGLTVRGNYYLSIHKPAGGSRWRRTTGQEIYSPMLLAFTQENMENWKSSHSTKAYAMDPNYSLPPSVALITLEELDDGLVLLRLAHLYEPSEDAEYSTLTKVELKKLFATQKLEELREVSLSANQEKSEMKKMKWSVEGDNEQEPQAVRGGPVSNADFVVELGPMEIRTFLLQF

For the compound `CC1=CCC[C@H]2[C@](C)(Cc3cc(O)ccc3O)[C@@H](C)CC[C@]12C` [(+)-avarol, (+)-Avarol], the “% Enzyme activity relative to control” value came to 102% in assay [1], 102% in [2] (20 μM inhibitor), 90% in [5] (40 μM inhibitor) and 113% in assay [6] (40 μM inhibitor). The remaining activity at 40 µM in assay [3] (40 μM inhibitor) turned out to be 104%; in [4] (40 μM inhibitor), 101%; in assay [7] (40 μM inhibitor) it was 100%. Further, the IC50 in assay [8] is over 20 µM; in [9] it was over 40 µM.

As for `CC1=CCC[C@@H]2[C@@](C)(Cc3cc(O)ccc3O)[C@H](C)CC[C@@]12C` [(-)-avarol], the “% Enzyme activity relative to control” value in assay [1] stood at 96%; in [2] (10 μM inhibitor), 89%; in assay [5] (20 μM inhibitor), 94%; in [6] (20 μM inhibitor), 94%. Further, the remaining activity at 20 µM in assay [3] (20 μM inhibitor) worked out at 111%; in assay [4] (20 μM inhibitor), 108%; in assay [7] (20 μM inhibitor), 91%. The figures for the IC50 in [8] and in [9] were 7.6 µM and about 10 µM, respectively.
